# Results from US9394544B2, “Ameliorating oxidative stress in neurodegenerative disease via Nox1 targeting” (University of Central Florida Research Foundation, Inc., priority 2013, dated 2016).
# Like-named read-outs stand apart in the source and are kept apart here.
# How the values were obtained:
# [1] = tested on: Nox1; assay: Nox1 expression (RT-PCR, immunoblot) in N27 cells exposed to toxins; assay type: cell-based, rat
# Text: The NADPH oxidase is a multi-subunit enzyme that consists of the catalytic subunits (Nox isoforms) together with the regulatory subunits including p22phox, p47phox, p40phox, p67phox, Nox organizer 1 (Noxo1), Nox activator 1 (Noxa1), and small GTPase Rac1. In order to test whether dopaminergic (DA) cells are equipped with the NOX components, N27, a well-established rat DA cell line was examined (Prasad et al. 1994). The mRNAs encoding each Nox isoform and regulatory subunits were detected using RT-PCR. Since transcriptional induction of Nox1 and Nox4 has already been reported in several tissues under a variety of stimuli, transcripts were determined in both nontreated and 6-hydroxydopamine (6-OHDA), a DA neurodegenerative compound, treated DA cells. ROS generation as induced by 6-OHDA (100 μM) and subsequent cell death was observed. All Nox isoforms (Nox1, Nox2, Nox4, Duox1 and Duox2) except Nox3 and Nox5 were detected (FIG. 1A). […] Mitochondria, which have long been considered as a major source of ROS, play a key role in Nox1-mediated superoxide generation (Desouki et al. 2005). […] Cytoplasmic regulatory subunits including p47phox, Noxa1, and Noxo1 were constitutively expressed in DA cells as well (FIG. 1A). Noxa1 and Noxo1 are homologues of p67phox and p47phox, respectively. They are involved in Nox1-mediated superoxide generation (Banfi et al. 2003, Geiszt et al. 2003). […] The activation of a small GTPase Rac1 is indispensable for Nox1 and Nox2 activation (Bokoch 2002). GTP-bound active Rac1 was measured in DA cells treated with 6-OHDA for various duration from 1 h to 6 h.
# Total RNA was extracted from N27 cells using Trizol reagent (Invitrogen, Carlsbad, Calif.). Reverse transcription was performed for 1 h at 42° C. with 1 μg of total RNA using 20 unit/μl of AMV reverse transcriptase (Roche Applied Science, Indianapolis, Ind.), and oligo-p(dT)15 as a primer. The samples were then heated at 99° C. for 5 min to terminate the reaction. The cDNA obtained from 1 μg total RNA was used as a template for PCR amplification. Oligonucleotide primers were designed based on Genebank entries for rat NOX1 (sense, 5′-[…]-3′ SEQ ID NO. 1; antisense, 5′-[…]-3′ SEQ ID NO. 2), rat NOX2 (sense, 5′-[…]-3′ SEQ ID NO. 3; antisense, 5′-[…]-3′ SEQ ID NO. 4), rat NOX4 (sense, 5′-[…]-3′ SEQ ID NO. 5; antisense, 5′-[…]-3′ SEQ ID NO. 6), rat NOXA1 (sense, 5′-[…]-3′ SEQ ID NO. 7; antisense, 5′-[…]-3′ SEQ ID NO. 8), rat NOXO1 (sense, 5′-[…]-3′ SEQ ID NO. 9; antisense, 5′-[…]-3′ SEQ ID NO. 10), rat p47 (sense, 5′-[…]-3′ SEQ ID NO 11; antisense, 5′-[…]-3′ SEQ ID NO. 12), rat Duox1 (sense, 5′-[…]-3′ SEQ ID NO. 13; antisense, 5′-[…]-3′SEQ ID NO. 14), rat Duox2 (sense, 5′-[…]-3′ SEQ ID NO. 15; antisense, 5′-[…]-3′ SEQ ID NO. 16) and rat GAPDH (sense, 5′-[…]-3′ SEQ ID NO. 17; antisense, 5′-[…]-3′ SEQ ID NO. 18). PCR mixes contained 10 μl of 2×PCR buffer, 1.25 mM of each dNTP, 10 pmol of each forward and reverse primer, and 2.5 units of Taq polymerase in the final volume of 20 μl. Amplification was performed in 35 cycles at 60° C., 30 sec; 72° C., 1 min; 94° C., 30 sec. After the last cycle, all samples were incubated for an additional 10 min at 72° C. for final extension step. PCR fragments were analyzed on 1.2% agarose gel in 0.5×TAE containing ethidium bromide. Amplification of GAPDH, a relatively invariant internal reference RNA, was performed in parallel, and cDNA amounts were normalized against GAPDH mRNA levels. The primer set specifically recognized only the gene of interest as indicated by amplification of a single band of expected size. […]
# [2] = tested on: Nox1; assay: Nuclear localization of Nox1-EGFP in N27 cells (confocal microscopy); assay type: cell-based, rat; conditions: N27 cells expressing Nox1-EGFP; 6-OHDA 50 μM 6 h, rotenone 5 μM 18 h
# Text: The observation that Nox1 was induced by a variety of oxidative stimuli in vitro led one to test Nox1 expression in the rat substantia nigra DA (SNDA) neurons administered with 6-OHDA. […] Neither astrocytes nor microglia expressed Nox1, as verified by co-immunostaining of Nox1 with GFAP (astrocytes) or CD11b (microglia) (FIG. 3B). Increased Nox1 transcript was found in the SN as shown by in situ hybridization (FIG. 3C). […] As early as 3 days post 6-OHDA injection, Nox1 expression was increased in the nucleus and in the cytoplasm of DA neurons (FIG. 4A). […] Nuclear expression of the Nox1/Rac1 complex was further analyzed in N27 cells after treatment with 6-OHDA. First, activated Rac1 was detected by immunoprecipitation of nuclear extracts of N27 cells after a 24 h treatment with 6-OHDA. […] Next, it was established that N27 cells stably expressing Nox1 tagged with EGFP at the C-terminus. […] To examine whether nuclear translocation of Nox1 in dopaminergic cells is observed under different conditions that cause dopaminergic neuronal death, mitochondrial respiratory complex inhibitor, rotenone, was tested.
# [3] = tested on: N27 cells; assay: NBT assay of 6-OHDA-mediated ROS generation in N27 dopaminergic cells; assay type: cell-based, rat; conditions: 6 h; for 6-OHDA-mediated ROS generation (NBT assay): inhibitor pre-treatment 30 min (DPI 0.1, 0.5, 1.0 μM; apocynin 0.1, 1.0, 10, 100 μM), then 6-OHDA 100 μM
# Experimental: N27 cells were pre-treated with various concentrations of DPI (0.1, 0.5, and 1.0 μM) for 30 min and then 6-OHDA (100 μM) was added. Superoxide was measured using the nitroblue tetrazolium (NBT) assay at 6 h post 6-OHDA.
# Cells were grown in RPMI 1640 containing 10% FBS, 100 IU/1 penicillin, and 10 g/ml streptomycin at 37° C. with 5% CO2 supply in humidified atmosphere. For experiments, the cells were plated on polystyrene tissue culture dishes at a density of 2×10^4 cells/well in 96-well culture plates, 1×10^6 cells/well in 24-well culture plates, 1×10^6 cells/well in 6-well culture plates, or 2×10^6 cells/100 mm plate. After 24 h, the cells were fed with fresh medium and treated with 6-OHDA and/or other drugs.
# 6-OHDA treated cells were incubated for 1 h at 37° C. with a filtered solution of 0.3 mg/ml of NBT in complete medium. The cells were washed once with PBS and fixed with 0.4% paraformaldehyde for light microscopy. To quantify NBT precipitation, cells were washed twice with 70% methanol and fixed for 5 min in 100% methanol. After the wells were allowed to dry in the air, the formazan is solubilized with 120 μl 2M K OH and 140 μl DMSO. The OD was read in an ELISA plate reader at 590 nm.
# [4] = tested on: Nox1; assay: Nox1 expression in SNDA neurons of MPTP-treated mice; assay type: in vivo
molecule,measurement,setting,value
OO [H2O2],mRNA and protein levels of Nox1,[1]; N27 cells,increase
antimycin A,mRNA and protein levels of Nox1,[1]; N27 cells,elevated
C=C(C)[C@H]1Cc2c(ccc3c2O[C@@H]2COc4cc(OC)c(OC)cc4[C@@H]2C3=O)O1 [rotenone],mRNA and protein levels of Nox1,[1]; N27 cells,elevated
same,nuclear localization of Nox1,[2],led to nuclear localization of Nox1
CC(C)(C)c1ccc(CSc2cnn(C(C)(C)C)c(=O)c2Cl)cc1 [pyridaben],mRNA and protein levels of Nox1,[1]; N27 cells,elevated
N#CC(C#N)=NNc1ccc(OC(F)(F)F)cc1 [FCCP],mRNA and protein levels of Nox1,[1],elevated
"c1ccc2c(c1)[I+]c1ccccc1-2 [DPI, diphenyleneiodonium]",lowest concentration significantly reducing 6-OHDA-mediated ROS generation,"[3]; 30 min pre-treatment, 6-OHDA 100 μM",0.1 µM
same,6-OHDA-mediated ROS generation (NBT assay),[3],significantly reduced
COc1cc(C(C)=O)ccc1O [apocynin],6-OHDA-mediated ROS generation (NBT assay),[3],significantly diminished
"CN1CC=C(c2ccccc2)CC1 [MPTP, 1-methyl-4-phenyl-1,2,3,6-tetrahydropyridine]",Nox1 expression in the SNDA neurons,[4],Increased Nox1 expression
